Two compounds from ChEMBL document CHEMBL1126541, “Novel water soluble phosphate prodrugs of taxol possessing in vivo antitumor activity” (1993) can be followed below.

Holding throughout (format): functional, Mus musculus
Assay [1] concerns M109. The assay is described as follows: In vivo antitumor activity in M109 (Murine lung carcinoma cells) tumor model after (ip) administration on days 5 and 8 at dose of 70 mg/kg/injection.
The test system of assay [2] is M109. The assay can be described thus: In vivo antitumor activity of the taxol was determined in M109 (Murine lung carcinoma cells) tumor model after (ip) administration in 10% Tween 80 in saline on days 5 and 8 at dose of 40 mg/kg/injection in presence of Taxol.
The subject of assay [3] is M109. The assay is described as follows: In vivo antitumor activity in M109 (Murine lung carcinoma cells) tumor model after (ip) administration on days 5 and 8 at dose of 140 mg/kg/injection.
Assay [4] has as its system M109. The assay can be described thus: In vivo antitumor activity of the taxol was determined in M109 (Murine lung carcinoma cells) tumor model after (ip) administration in 10% Tween 80 in saline on days1, 5, and 9 at a dose of 30 mg/kg/injection in presence of Taxol.
Assay [5] has as its system M109. The assay is described as follows: In vivo antitumor activity in M109 (Murine lung carcinoma cells) tumor model after (ip) administration on days 1, 5,and 9 at dose of 100 mg/kg/injection.

For orientation: T/C means the ratio of treated to control.

Turning to `CC(=O)O[C@H]1C(=O)[C@]2(C)[C@@H](OC(=O)CC(C)(C)c3c(C)cc(C)cc3OP(=O)([O-])[O-])C[C@H]3OC[C@@]3(OC(C)=O)[C@H]2[C@H](OC(=O)c2ccccc2)[C@]2(O)C[C@H](OC(=O)[C@H](O)[C@@H](NC(=O)c3ccccc3)c3ccccc3)C(C)=C1C2(C)C.[Na+].[Na+]`, the T/C was determined as 153% in assay [1], 144% in assay [2] and 156% in assay [3].
Take `CC(=O)O[C@H]1C(=O)[C@@]2(C)[C@H]([C@H](OC(=O)c3ccccc3)[C@]3(O)C[C@H](OC(=O)[C@H](OC(=O)CC(C)(C)c4c(C)cc(C)cc4OP(=O)([O-])[O-])[C@@H](NC(=O)c4ccccc4)c4ccccc4)C(C)=C1C3(C)C)[C@]1(OC(C)=O)CO[C@@H]1C[C@@H]2O.[Na+].[Na+]`: the figures for the T/C in assay [4] and in assay [5] were 275% and 144%, respectively.
